From patent publication US20130274127A1, “GENE EXPRESSION MARKERS FOR PREDICTION OF RESPONSE TO PHOSPHOINOSITIDE 3-KINASE INHIBITORS” (GENOMIC HEALTH, INC., priority 2012, published 2013)

Tests used:
[1] = tested on: MDA-MB-231 tumor cell line; assay: siRNA knockdown and cell viability assay; format: cell-based, human
[2] = tested on: OVCAR-4 tumor cell line; assay: siRNA knockdown and cell viability assay; format: cell-based, human

Cn1c(=O)n(-c2ccc(C(C)(C)C#N)cc2)c2c3cc(-c4cnc5ccccc5c4)ccc3ncc21 [NVP-BEZ235]
Sensitivity to NVP-BEZ235 (cell viability) upon loss of OGT expression ([1]; OGT siRNA + 10 nM NVP-BEZ235): increased sensitivity
Sensitivity of cell line to NVP-BEZ235 ([1]; data not shown): resistant
Sensitivity to NVP-BEZ235 (cell viability) upon loss of OGT expression ([2]; OGT siRNA + 10 nM NVP-BEZ235): no effect
Sensitivity of cell line to NVP-BEZ235 ([2]; data not shown): highly NVP-BEZ235-resistant
